Data on eleven molecules can be found in patent publication US20130309184A1, “1,3-DIOXAN-5-ONE COMPOUNDS” (MERCK PATENT GMBH, priority 2011, published 2013).

Some results are limits rather than exact numbers.

Common to all, as to format: physicochemical
Data set [1] can be described thus: Absorption strength (absorption spectrum in ethanol). Conditions: for λmax: absorption maximum, dilute solution in ethanol; for E1% value: extinction at the absorption maximum extrapolated to 1 g/100 ml; for E1% value / Half-value width: ethanol; for Half-value width: half-value width of the absorption band. The arrangement: λmax: unit not given here. How it is done:
The measure used for the absorption strength is the so-called E1% value, and the half-value width of the absorption band in relation to the absorption maximum λmax indicated. The E1% value indicates the extinction at the absorption maximum extrapolated to a concentration of 1 g/100 ml. To this end, an absorption spectrum of the substance in ethanol is recorded in dilute solution. The values are compared with the reference spectra of curcumin and beta-carotene.

A short description of data set [2]: Solubility determination in phenethyl benzoate (X-Tend 226). How it is done: The solubility determination was carried out in phenethyl benzoate (X-Tend 226): […]
A short description of data set [3]: Fluorescence measurements. Particulars: in ethanol; measurement concentration 0.00436 mg/ml (Example 4), 0.00048 mg/ml (Example 8), 0.00045 mg/ml (Example 17). How it is done:
The substance concentrations in ethanol indicated in the table are measured using an Aminco Bowman 2 fluorescence spectrometer (cell thickness 1 cm; excitation 220-600 nm; emission 220-800 nm; spectral gap width (excitation) 4 nm, (emission) 8 nm; recording speed 10 nm/min; step width (excitation) 5 nm, (emission) 4 nm.

Data set [4] is described as follows: Thermal stability by thermogravimetry. Conditions: for Temperature at which 98% of the weight were still present: TGA, RT to 800° C., heating rate 10K/min; for thermal stabilities: verbal assessment, high-temperature processing possible without decomposition. How it is done: The thermal stability is determined with the aid of the thermogravimetry method (instrument TGA Q5000 V3.10 Build 258, temperature range RT to 800° C., heating rate 10K/min).

As for `CCOC1(C)O/C(=C\c2ccc(OC)cc2OC)C(=O)/C(=C/c2ccc(OC)cc2OC)O1` (stereo not shown) [Example 3], in data set [1], the λmax was 419, the E1% value is on record as 688 and the Half-value width was 93 nm. Also, the “Solubility in X-Tend 226” value in data set [2] is recorded as 1.0%.

Regarding `CCOC1(C)O/C(=C\c2ccc(N(C)C)cc2OC)C(=O)/C(=C/c2ccc(N(C)C)cc2OC)O1` (stereo not shown) [Example 17, 2-ethoxy-2,6-bis-[1-(4-dimethylamino-2-methoxyphenyl)meth-(Z)ylidene]-2-methyl-1,3-dioxan-5-one], in data set [3], the Emission is given as 632 nm and the Excitation amounted to 490 nm.

As to `CCOC1(C)O/C(=C\c2ccc(OC)c(OC)c2)C(=O)/C(=C/c2ccc(OC)c(OC)c2)O1` (stereo not shown) [Example 2], in data set [1], the λmax came out at 412, the E1% value is reported as 617 and the Half-value width worked out at 85 nm. Besides, the “Solubility in X-Tend 226” value in data set [2] turned out to be 1.2%.

`CCOC1(C)O/C(=C\c2cc(OC)c(OC)cc2OC)C(=O)/C(=C/c2cc(OC)c(OC)cc2OC)O1` (stereo not shown) [Example 4]: in data set [1], the λmax amounted to 444, the E1% value is recorded as 304 and the Half-value width is 92 nm. In data set [3], this molecule gave an Emission of 596 nm and an Excitation of 440 nm. In addition, in data set [4], the “Temperature at which 98% of the weight were still present” value was found to be 256° ° C and the thermal stabilities entry is reported as “excellent”. Besides, in data set [2], the “Solubility in X-Tend 226” value is given as below 0.1%.

Take `CCCCCCCCOc1ccc(/C=C2\OC(C)(OCC)O/C(=C\c3ccc(OCCCCCCCC)cc3)C2=O)cc1` (stereo not shown) [Example 6, (4Z,6Z)-4,6-bis[(4-octyloxyphenyl)methylene]-2-ethoxy-2-methyl-1,3-dioxan-5-one]: in data set [1], the λmax is recorded as 404, the E1% value is listed as 557 and the Half-value width turned out to be 87 nm. In addition, the “Solubility in X-Tend 226” value in data set [2] turned out to be 1.0%.

For `CCOC1(C)O/C(=C\c2ccc(Oc3ccccc3)cc2)C(=O)/C(=C/c2ccc(Oc3ccccc3)cc2)O1` (stereo not shown) [Example 7, (4Z,6Z)-4,6-bis[(4-phenoxyyphenyl)methylene]-2-ethoxy-2-methyl-1,3-dioxan-5-one], in data set [1], the λmax stood at 389, the E1% value is recorded as 675 and the Half-value width is 84 nm. Further, in data set [2], the “Solubility in X-Tend 226” value is 2.2%.

`COc1cc(/C=C/C(=O)CC(=O)/C=C/c2ccc(O)c(OC)c2)ccc1O` [Curcumin, curcumin, reference compound]: in data set [1], the λmax amounted to 426, the E1% value was 1507 and the Half-value width is 78 nm. The “Temperature at which 98% of the weight were still present” value in data set [4] worked out at 223° ° C. In addition, the “Solubility in X-Tend 226” value in data set [2] amounted to 0.4%.

Consider `CCOC1(C)O/C(=C\c2cc(OC)c(OC)c(OC)c2)C(=O)/C(=C/c2cc(OC)c(OC)c(OC)c2)O1` (stereo not shown) [Example 5], for which, in data set [1], the λmax came to 394, the E1% value was 647 and the Half-value width came out at 85 nm. Further, in data set [2], the “Solubility in X-Tend 226” value was 1.1%.

In the case of `CC1=C(/C=C/C(C)=C/C=C/C(C)=C/C=C/C=C(C)/C=C/C=C(C)/C=C/C2=C(C)CCCC2(C)C)C(C)(C)CCC1` [Beta-carotene, beta-carotene, reference compound], in data set [1], the λmax was determined as 453, the E1% value is listed as 408 and the Half-value width worked out at 88 nm. The “Temperature at which 98% of the weight were still present” value in data set [4] was determined as 84° ° C. The “Solubility in X-Tend 226” value in data set [2] was 0.2%.

With `CCCCN(CCCC)c1ccc(/C=C2\OC(C)(OCC)O/C(=C\c3ccc(N(CCCC)CCCC)cc3)C2=O)cc1` (stereo not shown) [Example 8, (4Z,6Z)-4,6-bis[[(4-dibutylamino)phenyl]methylene]-2-ethoxy-2-methyl-1,3-dioxan-5-one], in data set [1], the λmax is 486, the E1% value is listed as 953 and the Half-value width came to 105 nm. In data set [3], this molecule yielded an Emission of 640 nm and an Excitation of 485 nm. In data set [4], the “Temperature at which 98% of the weight were still present” value amounted to 274° ° C and the thermal stabilities result is recorded as “excellent”. Besides, the “Solubility in X-Tend 226” value in data set [2] is reported as 2.8%.

As to `CCOC1(C)O/C(=C\c2ccc(OC)cc2)C(=O)/C(=C/c2ccc(OC)cc2)O1` (stereo not shown) [Example 1, (4Z,6Z)-2-ethoxy-4,6-bis[(4-methoxyphenyl)methylene]-2-methyl-1,3-dioxan-5-one], in data set [1], the λmax came to 402, the E1% value is on record as 873 and the Half-value width amounted to 84 nm. Further, the “Solubility in X-Tend 226” value in data set [2] came to 2.8%.
